Reference: US20230048338A1, “NOVEL CELLULAR DELIVERY METHODS” (PYC Therapeutics Limited, priority 2019, published 2023)

What was measured:
[1] = test system: ARPE-19 cells; assay: In vitro SMN1 viability assay (CellTiter-Glo); assay type: cell-based; conditions: for Percent Mean Viability (± SD): 48 h
Procedure: (§1) Cells were seeded in 96-well plates (ARPE-19, 4×10^3 cells/well) in complete medium (DMEM/F12 1:1, 10% FCS; 10 mM HEPES, 1× GlutaMAX™, Pen/Strep 100 u/ml; Gibco, Thermo Fisher Scientific, Waltham, Mass., USA). Cells were incubated overnight (37° C., 5% CO2) to allow for cell adherence. On the day of the assay, media was aspirated and replaced with CPP-PMO or PMO only diluted in treatment media (DMEM/F12 1:1, 10% FCS; 10 mM HEPES, 1× GlutaMAX™, Pen/Strep 100 u/ml; Gibco, Thermo Fisher Scientific, Waltham, Mass., USA) at various concentrations (32, 16, 8, 4, 2, and 1 uM), followed by incubation (37° C., 5% CO2) for 24 h. Fresh media 1:1 was added the following day and cells returned to the incubator for a further 24 h.
48 h post-treatment, viability of the cells was measured using the commercial CellTiter-Glo® Luminescent Cell Viability Assay (Promega, Australia). In brief the CellTiter-Glo reagent lyses the cells and generates a luminescent signal that is proportional to the amount of ATP present, which in turn is directly proportional to the number of live cells present in culture. All assays were conducted with a known cytotoxic agent, melittin (Renata et al. 2007), and cell only control. Cell viability was used to determine the level of toxicity caused by the CPP-PMO conjugates, where high viability equates to low toxicity, and low viability with high toxicity, respectively.

[2] = test system: Smn gene exon 7; assay: In vivo Smn efficacy assay (IVT administration), exon-7 skipping in ocular tissues; conditions: mouse; for Percent exon7-skipped SMN1 transcript (± SD): intravitreal 1.6 ug per eye
Description: The in vitro SMN1 efficacy assay described in Example 1 is equally applicable to the in vivo setting, given the ubiquitous distribution of the Smn gene in the mouse body, Smn being the mouse orthologue of the human SMN1. The use of natural L-peptides is undesirable in the in vivo setting, due to presence of a vast array of proteases in the body. To adequately assess the peptide's cell-penetrating capacity, peptides were synthesized as either mixed-L/D amino acid containing peptides, where all basic residues were D-amino acids, or as full-D amino acid containing peptides. Both approaches have been established to protect peptides from proteolytic degradation during systemic administration into animals.
The ability of CPP-PMOs to deliver the Smn cargo in vivo to the RPE cell later in the eye was assessed by administration into the vitreous humor of mice and measuring the change in Smn transcript levels in the retina, RPE and choroid cell layers after 5, 7, 21 and 28 days. The CPP of the present invention (SEQ ID NO: 1) and control CPP Pip6a (SEQ ID NO: 3), conjugated to an Smn PMO (SEQ ID NO: 2), were administered by intravitreal injection at 1.6 ug (0.5 ul volume) per eye. At the desired time point post treatment, the animals were culled and eyes were dissected, tissue layers homogenised and RNA extracted using the same protocol as per Example 1.
The efficiency of delivery and function to the various organs was determined by measuring the change in Smn RNA transcript from full-length to an exon-7 skipped fragment (D7-Smn) RNA transcript, using RNA extraction, cDNA generation and PCR using Smn-specific primers. Efficiency was interpreted by the higher the percentage D7-Smn transcript, the better the delivery to the tissue by the CPP.
Exon skipping assays and RT-PCR detection were performed according to published protocols (Mann et al 2002, Gene Med, 4, 644-654).
Mice (C576/6; age 7 weeks) were sourced from Australian BioResources (ABR). Selected CPP-PMOs were injected into the vitreous at 1.6 ug (0.5 ul) per eye, with one to three mice per treatment group.
48 h post-treatment, mice were culled, and the following ocular tissues harvested; retina, RPE layer or RPE/choroid combined. The tissues were homogenised, and RNA was obtained using commercial RNA extraction kits according to manufacturer's protocol (Bio-Rad Aurum total RNA 96 kit; Quantify RNA yield; Quant-iT RNA BR kit).
(§2) Extracted RNA was purified, quantified and then diluted to 10 ng/ul. cDNA was produced using a commercial reverse transcription kit according to the manufacturers protocol (BioRad iScript). The produced cDNA was used as a template with primers designed to amplify region of interest, to amplify the DNA. The efficacy of exon skipping was determined by quantifying full length (FL Smn) and exon-7 skipped fragment (D7-Smn) of the Smn gene (LC-GX Nucleic Acid Analyzer) and calculating a percentage. The higher the percentage of D7-Smn DNA, the greater the CPP delivery efficiency.

[3] = test system: GFAP; assay: GFAP in vivo toxicity assay (ddPCR of Gfap mRNA after intravitreal injection); conditions: 5 days, mouse; for GFAP score (± SD): intravitreal 1.6 ug per eye, Gfap mRNA normalised to housekeeping genes
Description: Glial fibrillary acidic protein (GFAP) is an intermediate-filament cytoskeletal protein. Levels of GFAP are strongly influenced by injury or stress in some cell types and GFAP expression has become an important marker of injury in the central nervous system. In the eye, Muller glia cells normally express low levels of GFAP which increases considerably following retinal injury.
Expression of GFAP mRNA was quantified via amplification of cDNA obtained as part of the in vivo Smn efficacy assay described above. ddPCR was performed using BioRad droplet generator and reader (QX200 DG8) and thermocyclers (T100), specific probes for murine Gfap (dMmuCPE5116126) and housekeeping genes Gapdh, Eef1a1 and Rp127 (dMmuCPE5195283, dMmuCPE5101732 and dMmuCPE5197083) as well as ddPCR Master mix for Probes (#1863024) and other ddPCR specific consumables from BioRad (#1863005, 12001925, 1863004, 1864007).
Assay results were obtained by BioRad ddPCR software in copies/uL. This was then normalised to housekeeping genes for comparison across experiments.

[4] = test system: exon 7 of the SMN1 gene; assay: In vitro SMN1 efficacy assay (exon-7 skipping, ARPE-19 cells); assay type: cell-based, human; conditions: for Percent exon7-skipped SMN1 transcript (± SD): 48 h post treatment
Procedure: Potential CPP peptides were linked to a […] that targets exon 7 of the SMN1 gene (Flynn et al 2018), using strain-promoted (SPAAC) click chemistry (Agard et al 2004, Dommerholt et al. 2016). Peptide-PMO conjugates were incubated on ARPE-19 cells for 2 days in full media. Efficacy of internalization was measured by the degree of exon7 skipping in the SMN1 gene RNA transcript through RNA extraction. Peptide-PMOs with % d7 transcript higher than the PMO treatment alone were considered CPPs.
Using the SMN1 gene, we built an exon-skipping assay targeting the SMN1 gene (Flynn et al 2018) at exon-7 using a phosphorodiamidate morpholino oligonucleotide (PMO) conjugated to different CPPs. This assay was used to identify CPPs that could efficiently deliver PMO cargo to the nucleus and effect exon-skipping of SMN1. Efficiency of delivery and function was determined by measuring the change in D7-SMN1 RNA transcript, using RNA extraction, cDNA generation and PCR using SMN1-specific primers. Efficiency was interpreted by the higher the percentage D7-SMN1 transcript, the better the delivery to the nucleus by the CPP.
Exon skipping assays and PCR detection were performed according to published protocols (Mann et al 2002, Gene Med, 4, 644-654).
Retinal pigment epithelial cells (ARPE-19) immortalized cells were treated with various concentrations (4 uM, 2 uM, 1 uM, in duplicate) of CPP-PMO conjugate and SMN1 transcript levels assessed 48 h post treatment by RNA extraction and purification, followed by cDNA generation and PCR.
as §1, with “24-well” for “96-well”, “2.5×10^4” for “4×10^3”, “USA),” for “USA) at various concentrations (32, 16, 8, 4, 2, and 1 uM),”
48 h post-treatment, the cell media was carefully aspirated, and cells rinsed with PBS. RNA from the treated cells was obtained using commercial RNA extraction kits according to manufacturer's protocol (Bio-Rad Aurum total RNA 96 kit; Quantify RNA yield; Quant-iT RNA BR kit).
as §2, with “SMN1)” for “Smn)”, “(D7-SMN1)” for “(D7-Smn)”, “SMN1” for “Smn”, “D7-SMN1” for “D7-Smn”, “efficiency” for “efficiency.”

ACTTTCCTTCTTTTTTATTTTGTCT (PMO, 5' cyclooctyne handle, chemistry not fully specified; listed as Homo sapiens) [SEQ ID NO: 2, phosphorodiamidate morpholino oligonucleotide (PMO) targeting exon 7 of SMN1, with 5' cyclooctyne handle; unconjugated cargo control]
Percent Mean Viability (± SD) ([1]; 2 uM): 99.41%
Percent Mean Viability (± SD) ([1]; 4 uM): 100.01%
Percent Mean Viability (± SD) ([1]; 8 uM): 99.11%
Percent Mean Viability (± SD) ([1]; 16 uM): 97.42%
Percent Mean Viability (± SD) ([1]; 32 uM): 93.61%
Percent exon7-skipped SMN1 transcript (± SD) ([2]; RPE/choroid, 5 days): 0.00%
Percent exon7-skipped SMN1 transcript (± SD) ([2]; RPE/choroid, 7 days): 0.00%
Percent exon7-skipped SMN1 transcript (± SD) ([2]; retina, 5 days): 0.00%
Percent exon7-skipped SMN1 transcript (± SD) ([2]; retina, 28 days): 0.77%
GFAP score (± SD) [3]: 0.0262
Percent exon7-skipped SMN1 transcript (± SD) ([4]; 1 uM): 16.59 (± 4.07) Percent
Percent exon7-skipped SMN1 transcript (± SD) ([4]; 2 uM): 17.35 (± 4.97) Percent
Percent exon7-skipped SMN1 transcript (± SD) ([4]; 4 uM): 18.34 (± 5.99) Percent

rrsrtaraGrpGrnssrpsapr[azk]ACTTTCCTTCTTTTTTATTTTGTCT (chain 1 RRSRTARAGRPGRNSSRPSAPR; chain 2 actttccttcttttttattttgtct; azidolysine SPAAC click linkage; listed as Homo sapiens) [SEQ ID NO: 1[azk]2]
Percent Mean Viability (± SD) ([1]; 2 uM): 102.61%
Percent Mean Viability (± SD) ([1]; 4 uM): 105.23%
Percent Mean Viability (± SD) ([1]; 8 uM): 103.34%
Percent Mean Viability (± SD) ([1]; 16 uM): 102.52%
Cell viability relative to PMO alone (less deleterious) ([1]; 32 uM for 48 hours): 1.05 fold
Percent Mean Viability (± SD) ([1]; 32 uM): 98.20%
Percent exon7-skipped SMN1 transcript (± SD) ([2]; RPE/choroid, 5 days): 13.05%
Percent exon7-skipped SMN1 transcript (± SD) ([2]; RPE/choroid, 7 days): 12.22%
Truncated D7-Smn transcript in vivo compared with Smn PMO alone (in words) ([2]; intravitreal, RPE/choroid and retina): creates more truncated D7-Smn transcript than the Smn PMO alone
Percent exon7-skipped SMN1 transcript (± SD) ([2]; retina, 5 days): 19.61%
Percent exon7-skipped SMN1 transcript (± SD) ([2]; retina, 28 days): 13.71%
GFAP expression in vivo (in words) ([3]; intravitreal): very little GFAP expression
GFAP score (± SD) [3]: 0.0324
Percent exon7-skipped SMN1 transcript (± SD) ([4]; 1 uM): 19.44 (± 3.82) Percent
Efficiency in inducing SMN1 exon-skipping relative to SMN1 PMO only treatment ([4]; 2 uM): 1.2 fold
Percent exon7-skipped SMN1 transcript (± SD) ([4]; 2 uM): 21.38 (± 2.10) Percent
Percent exon7-skipped SMN1 transcript (± SD) ([4]; 4 uM): 29.99 (± 3.96) Percent

RXRRBRRXRYQFLIRXRBRXRB[azk]ACTTTCCTTCTTTTTTATTTTGTCT [SEQ ID NO: 3[azk]2]
Percent exon7-skipped SMN1 transcript (± SD) ([2]; RPE/choroid, 5 days): 9.94%
Percent exon7-skipped SMN1 transcript (± SD) ([2]; RPE/choroid, 7 days): 6.70%
Percent exon7-skipped SMN1 transcript (± SD) ([2]; retina, 5 days): 21.66%
Percent exon7-skipped SMN1 transcript (± SD) ([2]; retina, 28 days): 3.39%
GFAP score (± SD) [3]: 0.1637
